# Target: T1, human TLR7 (Homo sapiens, UniProt Q9NYK1)
# T1 sequence (Q9NYK1 27-1049): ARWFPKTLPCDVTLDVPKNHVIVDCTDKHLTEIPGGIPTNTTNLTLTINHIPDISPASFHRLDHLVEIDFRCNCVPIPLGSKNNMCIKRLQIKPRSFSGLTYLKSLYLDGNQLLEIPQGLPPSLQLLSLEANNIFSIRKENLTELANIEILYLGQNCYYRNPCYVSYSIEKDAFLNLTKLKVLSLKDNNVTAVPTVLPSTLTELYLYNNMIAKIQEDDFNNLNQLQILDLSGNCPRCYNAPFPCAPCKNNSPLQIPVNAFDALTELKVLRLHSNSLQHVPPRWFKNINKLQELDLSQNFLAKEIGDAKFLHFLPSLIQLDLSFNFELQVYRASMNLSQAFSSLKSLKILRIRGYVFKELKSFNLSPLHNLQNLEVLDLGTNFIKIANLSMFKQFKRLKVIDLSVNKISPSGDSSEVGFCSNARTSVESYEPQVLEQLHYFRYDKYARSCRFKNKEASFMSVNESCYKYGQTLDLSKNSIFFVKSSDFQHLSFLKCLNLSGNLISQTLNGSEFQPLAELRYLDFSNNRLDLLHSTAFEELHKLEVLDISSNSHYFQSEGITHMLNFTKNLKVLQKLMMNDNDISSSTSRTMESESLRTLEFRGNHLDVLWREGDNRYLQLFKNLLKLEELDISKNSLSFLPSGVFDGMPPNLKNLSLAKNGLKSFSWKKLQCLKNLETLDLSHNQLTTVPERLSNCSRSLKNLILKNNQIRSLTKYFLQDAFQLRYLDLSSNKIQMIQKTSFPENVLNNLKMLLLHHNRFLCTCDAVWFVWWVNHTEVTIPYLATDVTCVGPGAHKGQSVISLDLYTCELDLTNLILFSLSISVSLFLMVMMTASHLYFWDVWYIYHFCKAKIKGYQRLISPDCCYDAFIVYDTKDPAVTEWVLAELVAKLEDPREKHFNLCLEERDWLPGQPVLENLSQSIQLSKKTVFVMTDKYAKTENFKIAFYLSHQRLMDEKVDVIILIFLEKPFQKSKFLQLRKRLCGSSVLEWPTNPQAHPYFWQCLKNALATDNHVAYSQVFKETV
# Test: HEK293-Blue-hTLR-7 cells assay
# Assay type: cell-based
# Details: HEK293-Blue-hTLR7 cells, R848 stimulation, 20 hrs, SEAP reporter; read-out: HEK/hTLR7 IC50
# In short: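 HEK293-Blue-hTLR7 cells (NF-κB/AP-1-driven SEAP reporter) incubated with serially diluted compound (1% DMSO final) and R848 agonist for 20 h at 37 °C. Supernatant SEAP measured with QUANTI-Blue (2 h, 37 °C) by absorbance at 620-655 nm; antagonism seen as reduced reporter.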
row,IC50 [nM],Structure (SMILES)
1,< 3.2,"C[C@@H]1CN(c2ccc(C#N)c3ncccc23)C[C@@H]2c3ccc(N4CCNCC4)cc3CN12 [Example 1, 5-[(4R,10bS)-4-methyl-8-piperazin-1-yl-3,4,6,10b-tetrahydro-1H-pyrazino[2,1-a]isoindol-2-yl]quinoline-8-carbonitrile]"
2,71.5,"C[C@H]1CN(c2ccc(C#N)c3ncccc23)C[C@H]2c3ccc(N4CCNCC4)cc3CN12 [Example 2, 5-[(4S,10bR)-4-methyl-8-piperazin-1-yl-3,4,6,10b-tetrahydro-1H-pyrazino[2,1-a]isoindol-2-yl]quinoline-8-carbonitrile]"
3,42.6,"N#Cc1ccc(N2CCN3Cc4cc(N5CCNCC5)ccc4C3C2)c2cccnc12 (centres unmarked) [Example 3, 5-(8-piperazin-1-yl-3,4,6,10b-tetrahydro-1H-pyrazino[2,1-a]isoindol-2-yl)quinoline-8-carbonitrile]"
4,11.1,"C[C@@H]1CN(c2ccc(C#N)c3ncccc23)C[C@@H]2c3ccc(N[C@@H]4CNCCOC4)cc3CN12 [Example 56A, 5-[(4R,10bS)-4-methyl-8-[[(6R)-1,4-oxazepan-6-yl]amino]-3,4,6,10b-tetrahydro-1H-pyrazino[2,1-a]isoindol-2-yl]quinoline-8-carbonitrile]"
5,4.5,"C[C@@H]1CN(c2ccc(C#N)c3ncccc23)C[C@@H]2c3ccc(N[C@H]4CNCCOC4)cc3CN12 [Example 56B, 5-[(4R,10bS)-4-methyl-8-[[(6S)-1,4-oxazepan-6-yl]amino]-3,4,6,10b-tetrahydro-1H-pyrazino[2,1-a]isoindol-2-yl]quinoline-8-carbonitrile]"
6,11.1,"C[C@@H]1CN(c2ccc(C#N)c3ncccc23)C[C@@H]2c3ccc(NCC4COCCN4)cc3CN12 (stereo partly drawn) [Example 57, 5-[(4R,10bS)-4-methyl-8-(morpholin-3-ylmethylamino)-3,4,6,10b-tetrahydro-1H-pyrazino[2,1-a]isoindol-2-yl]quinoline-8-carbonitrile]"
7,< 3.2,"C[C@@H]1CN(c2ccc(C#N)c3ncccc23)C[C@@H]2c3ccc(NC[C@@H]4CNCCO4)cc3CN12 [Example 58, 5-[(4R,10bS)-4-methyl-8-[[(2S)-morpholin-2-yl]methylamino]-3,4,6,10b-tetrahydro-1H-pyrazino[2,1-a]isoindol-2-yl]quinoline-8-carbonitrile]"
8,< 3.2,"C[C@@H]1CN(c2ccc(C#N)c3ncccc23)C[C@@H]2c3ccc(NC[C@H]4CNCCO4)cc3CN12 [Example 59, 5-[(4R,10bS)-4-methyl-8-[[(2R)-morpholin-2-yl]methylamino]-3,4,6,10b-tetrahydro-1H-pyrazino[2,1-a]isoindol-2-yl]quinoline-8-carbonitrile]"
9,3.2,"CO[C@@H]1CNC[C@@H]1Nc1ccc2c(c1)CN1[C@H](C)CN(c3ccc(C#N)c4ncccc34)C[C@H]21 [Example 60, 5-[(4R,10bS)-8-[[(3S,4R)-4-methoxypyrrolidin-3-yl]amino]-4-methyl-3,4,6,10b-tetrahydro-1H-pyrazino[2,1-a]isoindol-2-yl]quinoline-8-carbonitrile]"
10,5.7,"CO[C@H]1CNC[C@H]1Nc1ccc2c(c1)CN1[C@H](C)CN(c3ccc(C#N)c4ncccc34)C[C@H]21 [Example 61, 5-[(4R,10bS)-8-[[(3R,4S)-4-methoxypyrrolidin-3-yl]amino]-4-methyl-3,4,6,10b-tetrahydro-1H-pyrazino[2,1-a]isoindol-2-yl]quinoline-8-carbonitrile]"
11,5.9,"CO[C@H]1CNC[C@@H]1Nc1ccc2c(c1)CN1[C@H](C)CN(c3ccc(C#N)c4ncccc34)C[C@H]21 [Example 62, 5-[(4R,10bS)-8-[[(3S,4S)-4-methoxypyrrolidin-3-yl]amino]-4-methyl-3,4,6,10b-tetrahydro-1H-pyrazino[2,1-a]isoindol-2-yl]quinoline-8-carbonitrile]"
12,7.3,"CO[C@@H]1CNC[C@H]1Nc1cc2c(cc1C)[C@H]1CN(c3ccc(C#N)c4ncccc34)C[C@@H](C)N1C2 [Example 63, 5-[(4R,10bS)-8-[[(3R,4R)-4-methoxypyrrolidin-3-yl]amino]-4,9-dimethyl-3,4,6,10b-tetrahydro-1H-pyrazino[2,1-a]isoindol-2-yl]quinoline-8-carbonitrile]"
13,< 3.2,"CO[C@H]1CNC[C@@H]1N(C)c1ccc2c(c1)CN1[C@H](C)CN(c3ccc(C#N)c4ncccc34)C[C@H]21 [Example 64, 5-[(4R,10bS)-8-[[(3S,4S)-4-methoxypyrrolidin-3-yl]-methyl-amino]-4-methyl-3,4,6,10b-tetrahydro-1H-pyrazino[2,1-a]isoindol-2-yl]quinoline-8-carbonitrile]"
14,4.4,"C[C@@H]1CN(c2ccc(C#N)c3ncccc23)C[C@@H]2c3ccc(N[C@@H]4CCCNC4)cc3CN12 [Example 65, 5-[(4R,10bS)-4-methyl-8-[[(3R)-3-piperidyl]amino]-3,4,6,10b-tetrahydro-1H-pyrazino[2,1-a]isoindol-2-yl]quinoline-8-carbonitrile]"
15,< 3.2,"CO[C@H]1CNCC[C@H]1Nc1ccc2c(c1)CN1[C@H](C)CN(c3ccc(C#N)c4ncccc34)C[C@H]21 [Example 66, 5-[(4R,10bS)-8-[[(3S,4R)-3-methoxy-4-piperidyl]amino]-4-methyl-3,4,6,10b-tetrahydro-1H-pyrazino[2,1-a]isoindol-2-yl]quinoline-8-carbonitrile]"
16,3.3,"C[C@@H]1CN(c2ccc(C#N)c3ncccc23)C[C@@H]2c3ccc(NCCN4CC[C@H](O)C4)cc3CN12 [Example 68, 5-[(4R,10bS)-8-[2-[(3S)-3-hydroxypyrrolidin-1-yl]ethylamino]-4-methyl-3,4,6,10b-tetrahydro-1H-pyrazino[2,1-a]isoindol-2-yl]quinoline-8-carbonitrile]"
17,18.2,"C[C@@H]1CN(c2ccc(C#N)c3ncccc23)C[C@@H]2c3ccc(NCC4(F)CNC4)cc3CN12 [Example 69, 5-[(4R,10bS)-8-[(3-fluoroazetidin-3-yl)methylamino]-4-methyl-3,4,6,10b-tetrahydro-1H-pyrazino[2,1-a]isoindol-2-yl]quinoline-8-carbonitrile]"
18,9,"C[C@@H]1CN(c2ccc(C#N)c3ncccc23)C[C@@H]2c3ccc(NC[C@@H]4C[C@H](F)CN4)cc3CN12 [Example 70, 5-[(4R,10bS)-8-[[(2S,4S)-4-fluoropyrrolidin-2-yl]methylamino]-4-methyl-3,4,6,10b-tetrahydro-1H-pyrazino[2,1-a]isoindol-2-yl]quinoline-8-carbonitrile]"
19,< 3.2,"C[C@@H]1CN(c2ccc(C#N)c3ncccc23)C[C@@H]2c3ccc(N4C[C@@H]5CNCCN5C4=O)cc3CN12 [Example 71, 5-[(4R,10bS)-8-[(8aS)-3-oxo-1,5,6,7,8,8a-hexahydroimidazo[1,5-a]pyrazin-2-yl]-4-methyl-3,4,6,10b-tetrahydro-1H-pyrazino[2,1-a]isoindol-2-yl]quinoline-8-carbonitrile]"
20,< 3.2,"C[C@@H]1CN(c2ccc(C#N)c3ncccc23)C[C@@H]2c3ccc(N4C[C@H]5CNCCN5C4=O)cc3CN12 [Example 72, 5-[(4R,10bS)-8-[(8aR)-3-oxo-1,5,6,7,8,8a-hexahydroimidazo[1,5-a]pyrazin-2-yl]-4-methyl-3,4,6,10b-tetrahydro-1H-pyrazino[2,1-a]isoindol-2-yl]quinoline-8-carbonitrile]"
21,3.9,"C[C@@H]1CN(c2ccc(C#N)c3ncccc23)C[C@@H]2c3ccc(OC[C@@H]4C[C@H](F)CN4)cc3CN12 [Example 74, 5-[(4R,10bS)-8-[[(2S,4S)-4-fluoropyrrolidin-2-yl]methoxy]-4-methyl-3,4,6,10b-tetrahydro-1H-pyrazino[2,1-a]isoindol-2-yl]quinoline-8-carbonitrile]"
22,47.8,"Cc1ccc(N2C[C@@H](C)N3Cc4cc(N[C@H]5CNC[C@H]5F)ccc4[C@H]3C2)c2cccnc12 [Example 75, (4R,10bS)—N-[(3S,4R)-4-fluoropyrrolidin-3-yl]-4-methyl-2-(8-methyl-5-quinolyl)-3,4,6,10b-tetrahydro-1H-pyrazino[2,1-a]isoindol-8-amine]"
23,22.8,"Cc1ccc(N2C[C@@H](C)N3Cc4cc(N[C@H]5CNC[C@H]5F)ccc4[C@H]3C2)c2nccnc12 [Example 76, (4R,10bS)—N-[(3S,4R)-4-fluoropyrrolidin-3-yl]-4-methyl-2-(8-methylquinoxalin-5-yl)-3,4,6,10b-tetrahydro-1H-pyrazino[2,1-a]isoindol-8-amine]"

# Source: patent publication US12157746B2, “Tetrahydro-1H-pyrazino[2,1-a]isoindolylquinoline compounds for the treatment of autoimmune disease” (F. HOFFMANN-LA ROCHE AG, priority 2018, dated 2024)
